PubChem BioAssay AID1259407 (Chemical Carcinogenesis Research Information System (CCRIS), 2018)
Active and inactive are the calls of the source. The rule behind the calls is not given here.

Test system: CCRIS mutagenicity, Ames/micronucleus/aberration tests
Experiment: CCRIS mutagenicity studies
[1] = Test System: AMES SALMONELLA TYPHIMURIUM, Strain/Indicator: TA97, Metabolic Activation: NONE, Method: PREINCUBATION
[2] = Test System: AMES SALMONELLA TYPHIMURIUM, Strain/Indicator: TA98, Metabolic Activation: HAMSTER, LIVER, S-9, AROCLOR 1254 (10%), Method: PREINCUBATION
[3] = Test System: AMES SALMONELLA TYPHIMURIUM, Strain/Indicator: TA98, Metabolic Activation: NONE, Method: PREINCUBATION
[4] = Test System: AMES SALMONELLA TYPHIMURIUM, Strain/Indicator: TA98, Metabolic Activation: RAT, LIVER, S-9, AROCLOR 1254 (10%), Method: PREINCUBATION
[5] = Test System: AMES SALMONELLA TYPHIMURIUM, Strain/Indicator: TA100, Metabolic Activation: HAMSTER, LIVER, S-9, AROCLOR 1254 (10%), Method: PREINCUBATION
[6] = Test System: AMES SALMONELLA TYPHIMURIUM, Strain/Indicator: TA100, Metabolic Activation: NONE, Method: PREINCUBATION
[7] = Test System: AMES SALMONELLA TYPHIMURIUM, Strain/Indicator: TA100, Metabolic Activation: RAT, LIVER, S-9, AROCLOR 1254 (10%), Method: PREINCUBATION
[8] = Test System: AMES SALMONELLA TYPHIMURIUM, Strain/Indicator: TA1535, Metabolic Activation: HAMSTER, LIVER, S-9, AROCLOR 1254 (10%), Method: PREINCUBATION
[9] = Test System: AMES SALMONELLA TYPHIMURIUM, Strain/Indicator: TA1535, Metabolic Activation: NONE, Method: PREINCUBATION
[10] = Test System: AMES SALMONELLA TYPHIMURIUM, Strain/Indicator: TA1535, Metabolic Activation: RAT, LIVER, S-9, AROCLOR 1254 (10%), Method: PREINCUBATION
[11] = Test System: AMES SALMONELLA TYPHIMURIUM, Strain/Indicator: TA1537, Metabolic Activation: NONE, Method: PREINCUBATION

Q: Which results are given for CCCCCCC=O?
A: mutagenic call (Test System: AMES SALMONELLA TYPHIMURIUM, Strain/Indicator: TA97, Metabolic Activation: HAMSTER, LIVER, S-9, AROCLOR 1254 (10%), Method: PREINCUBATION): inactive; negative; mutagenic call (Test System: AMES SALMONELLA TYPHIMURIUM, Strain/Indicator: TA97, Metabolic Activation: HAMSTER, LIVER, S-9, AROCLOR 1254 (30%), Method: PREINCUBATION): inactive; negative; mutagenic call [1]: inactive; negative; mutagenic call (Test System: AMES SALMONELLA TYPHIMURIUM, Strain/Indicator: TA97, Metabolic Activation: RAT, LIVER, S-9, AROCLOR 1254 (10%), Method: PREINCUBATION): inactive; negative; mutagenic call (Test System: AMES SALMONELLA TYPHIMURIUM, Strain/Indicator: TA97, Metabolic Activation: RAT, LIVER, S-9, AROCLOR 1254 (30%), Method: PREINCUBATION): inactive; negative; mutagenic call [2]: inactive; negative; mutagenic call (Test System: AMES SALMONELLA TYPHIMURIUM, Strain/Indicator: TA98, Metabolic Activation: HAMSTER, LIVER, S-9, AROCLOR 1254 (30%), Method: PREINCUBATION): inactive; negative; mutagenic call [3]: inactive; negative; mutagenic call [4]: inactive; negative; mutagenic call (Test System: AMES SALMONELLA TYPHIMURIUM, Strain/Indicator: TA98, Metabolic Activation: RAT, LIVER, S-9, AROCLOR 1254 (30%), Method: PREINCUBATION): inactive; negative; mutagenic call [5]: inactive; negative; mutagenic call (Test System: AMES SALMONELLA TYPHIMURIUM, Strain/Indicator: TA100, Metabolic Activation: HAMSTER, LIVER, S-9, AROCLOR 1254 (30%), Method: PREINCUBATION): inactive; negative; mutagenic call [6]: inactive; negative; mutagenic call [7]: inactive; negative; mutagenic call (Test System: AMES SALMONELLA TYPHIMURIUM, Strain/Indicator: TA100, Metabolic Activation: RAT, LIVER, S-9, AROCLOR 1254 (30%), Method: PREINCUBATION): inactive; negative; mutagenic call [8]: inactive; negative; mutagenic call (Test System: AMES SALMONELLA TYPHIMURIUM, Strain/Indicator: TA1535, Metabolic Activation: HAMSTER, LIVER, S-9, AROCLOR 1254 (30%), Method: PREINCUBATION): inactive; negative; mutagenic call [9]: inactive; negative; mutagenic call [10]: inactive; negative; mutagenic call (Test System: AMES SALMONELLA TYPHIMURIUM, Strain/Indicator: TA1535, Metabolic Activation: RAT, LIVER, S-9, AROCLOR 1254 (30%), Method: PREINCUBATION): inactive; negative; mutagenic call (Test System: AMES SALMONELLA TYPHIMURIUM, Strain/Indicator: TA1537, Metabolic Activation: HAMSTER, LIVER, S-9, AROCLOR 1254 (30%), Method: PREINCUBATION): inactive; negative; mutagenic call [11]: inactive; negative; mutagenic call (Test System: AMES SALMONELLA TYPHIMURIUM, Strain/Indicator: TA1537, Metabolic Activation: RAT, LIVER, S-9, AROCLOR 1254 (30%), Method: PREINCUBATION): inactive; negative

Q: Which results are given for NC(N)=NC(N)=NCCc1ccccc1?
A: mutagenic call (End Point: IN VITRO CHROMOSOMAL ABERRATIONS, Test System: CHO CELLS, Metabolic Activation: NONE): inactive; negative; mutagenic call (End Point: IN VITRO CHROMOSOMAL ABERRATIONS, Test System: CHO CELLS, Metabolic Activation: RAT, LIVER, S-9, PHENOBARBITAL AND BETA-NAPHTHOFLAVONE): inactive; negative; mutagenic call [2]: inactive; negative; mutagenic call [3]: inactive; negative; mutagenic call [4]: inactive; negative; mutagenic call [5]: inactive; negative; mutagenic call [6]: inactive; negative; mutagenic call [7]: inactive; negative; mutagenic call [8]: inactive; negative; mutagenic call [9]: inactive; negative; mutagenic call [10]: inactive; negative; mutagenic call (Test System: AMES SALMONELLA TYPHIMURIUM, Strain/Indicator: TA1537, Metabolic Activation: HAMSTER, LIVER, S-9, AROCLOR 1254 (10%), Method: PREINCUBATION): inactive; negative; mutagenic call [11]: inactive; negative; mutagenic call (Test System: AMES SALMONELLA TYPHIMURIUM, Strain/Indicator: TA1537, Metabolic Activation: RAT, LIVER, S-9, AROCLOR 1254 (10%), Method: PREINCUBATION): inactive; negative

Q: NC(=O)c1cccnc1 was tested. Which mutagenic call (Test System: AMES SALMONELLA TYPHIMURIUM, Strain/Indicator: TA97A, Metabolic Activation: NONE, Method: PREINCUBATION) did it give?
A: The mutagenic call was “inactive; negative”.

Q: And the mutagenic call (Test System: AMES SALMONELLA TYPHIMURIUM, Strain/Indicator: TA97A, Metabolic Activation: RAT, LIVER, S-9, AROCLOR 1254, Method: PREINCUBATION)?
A: Its mutagenic call is “inactive; negative”.

Q: What about the mutagenic call (Test System: AMES SALMONELLA TYPHIMURIUM, Strain/Indicator: TA102, Metabolic Activation: NONE, Method: PREINCUBATION) of the same compound?
A: Its mutagenic call is “inactive; negative”.

Q: And the mutagenic call (Test System: AMES SALMONELLA TYPHIMURIUM, Strain/Indicator: TA102, Metabolic Activation: RAT, LIVER, S-9, AROCLOR 1254, Method: PREINCUBATION)?
A: The mutagenic call was “inactive; negative”.

Q: Which results are given for COc1cc(O)c2c(=O)c3c(O)ccc(O)c3oc2c1?
A: mutagenic call [1]: active; positive; mutagenic call (Test System: AMES SALMONELLA TYPHIMURIUM, Strain/Indicator: TA97, Metabolic Activation: RAT, LIVER, S-9, PHENOBARBITAL AND 5,6-BENZOFLAVONE, Method: PREINCUBATION): active; positive; mutagenic call (Test System: AMES SALMONELLA TYPHIMURIUM, Strain/Indicator: TA98, Metabolic Activation: RAT, LIVER, S-9, PHENOBARBITAL AND 5,6-BENZOFLAVONE, Method: PREINCUBATION): inactive; negative; mutagenic call (Test System: AMES SALMONELLA TYPHIMURIUM, Strain/Indicator: TA100, Metabolic Activation: RAT, LIVER, S-9, PHENOBARBITAL AND 5,6-BENZOFLAVONE, Method: PREINCUBATION): inactive; negative; mutagenic call (Test System: AMES SALMONELLA TYPHIMURIUM, Strain/Indicator: TA2637, Metabolic Activation: RAT, LIVER, S-9, PHENOBARBITAL AND 5,6-BENZOFLAVONE, Method: PREINCUBATION): active; positive

Q: How did the mutagenic call (Test System: AMES SALMONELLA TYPHIMURIUM, Strain/Indicator: TA1537, Metabolic Activation: NONE, Method: STANDARD PLATE) turn out when CC(=O)C1c2cccc(O)c2C(=O)c2c(O)cccc21 was run?
A: The mutagenic call was “active; positive”.

Q: And the mutagenic call (Test System: AMES SALMONELLA TYPHIMURIUM, Strain/Indicator: TA1537, Metabolic Activation: RAT, LIVER, S-9, PHENOBARBITAL AND BETA-NAPHTHOFLAVONE, Method: STANDARD PLATE)?
A: The mutagenic call was “inactive; negative”.

Q: And the mutagenic call (Test System: E. COLI, Strain/Indicator: WP2, Metabolic Activation: NONE, Method: STANDARD PLATE)?
A: Its mutagenic call is “inactive; negative”.

Q: What about the mutagenic call (Test System: E. COLI, Strain/Indicator: WP2, Metabolic Activation: RAT, LIVER, S-9, AROCLOR 1254, Method: STANDARD PLATE) of the same compound?
A: Its mutagenic call is “inactive; negative”.

Q: What about the mutagenic call (Test System: E. COLI, Strain/Indicator: WP2 UVRA, Metabolic Activation: NONE, Method: STANDARD PLATE) of the same compound?
A: The mutagenic call was “inactive; negative”.

Q: And the mutagenic call (Test System: E. COLI, Strain/Indicator: WP2 UVRA, Metabolic Activation: RAT, LIVER, S-9, AROCLOR 1254, Method: STANDARD PLATE)?
A: Its mutagenic call is “inactive; negative”.

Q: Which results are given for Cc1ccc2[nH]c3c(C)cc([N+](=O)[O-])c(C)c3c2c1?
A: mutagenic call (Test System: AMES SALMONELLA TYPHIMURIUM, Strain/Indicator: TA98, Metabolic Activation: NONE, Method: STANDARD PLATE): active; positive; mutagenic call (Test System: AMES SALMONELLA TYPHIMURIUM, Strain/Indicator: TA98, Metabolic Activation: RAT LIVER S-9, AROCLOR 1254, Method: STANDARD PLATE): active; positive; mutagenic call (Test System: AMES SALMONELLA TYPHIMURIUM, Strain/Indicator: TA100, Metabolic Activation: NONE, Method: STANDARD PLATE): inactive; negative; mutagenic call (Test System: AMES SALMONELLA TYPHIMURIUM, Strain/Indicator: TA100, Metabolic Activation: RAT LIVER S-9, AROCLOR 1254, Method: STANDARD PLATE): inactive; negative; mutagenic call (Test System: AMES SALMONELLA TYPHIMURIUM, Strain/Indicator: TA1537, Metabolic Activation: RAT LIVER S-9, AROCLOR 1254, Method: STANDARD PLATE): active; positive; mutagenic call (Test System: AMES SALMONELLA TYPHIMURIUM, Strain/Indicator: TA1977, Metabolic Activation: NONE, Method: STANDARD PLATE): inactive; negative; mutagenic call (Test System: AMES SALMONELLA TYPHIMURIUM, Strain/Indicator: TA1977, Metabolic Activation: RAT LIVER S-9, AROCLOR 1254, Method: STANDARD PLATE): active; positive
